Measured values: US4837304A, “Inhibitor of ribonucleotide reductase” (Merck & Co., Inc., priority 1987, dated 1989)
Non-standard residues stand in square brackets, D forms with d. Residues, ends and D or L forms follow the SMILES beside them. No end group written: not given here.

target: T1, Herpes Simplex Virus Ribonucleotide Reductase (HSV RR) (Human herpesvirus 2, UniProt P89462); experiment: Assay of inhibition of HSV RR (reduction of tritiated cytidine-diphosphate to deoxyribo-cytidinediphosphate); assay type: biochemical, HSV2 Strain 186; settings: not given
T1 construct: HSV RR was purified by Baby Hamster Kidney cells that were cultured with HSV2 Strain 186; made in house; host or cells: Baby Hamster Kidney cells infected with HSV2 Strain 186; crude enzyme per Huszar et al., then hydroxyapatite chromatography
Procedure: After infection, cells were harvested and lysed.
HSV RR activity was determined as the ability of the enzyme to catalyze the reduction of tritiated cytidine-diphosphate to deoxyribo-cytidinediphosphate in 30 minutes at 37° C. in the presence of dithiothreitol and MgCl2. Activity of oligopeptide inhibitors was determined by adding them to the reaction mix at the beginning of the incubation. Enzyme was not preincubated with inhibitor.
These were analyzed for amino acid composition and in some cases sequenced. Dry peptides were resuspended in 100 mM HEPES (pH 8.0) at about 2mM, relyophilized, and stored in aliquots at -80° C. Immediately prior to use they were rehydrated with distilled H2 O and centrifuged to remove any undissolved peptide.

T1 sequence (P89462 whole entry): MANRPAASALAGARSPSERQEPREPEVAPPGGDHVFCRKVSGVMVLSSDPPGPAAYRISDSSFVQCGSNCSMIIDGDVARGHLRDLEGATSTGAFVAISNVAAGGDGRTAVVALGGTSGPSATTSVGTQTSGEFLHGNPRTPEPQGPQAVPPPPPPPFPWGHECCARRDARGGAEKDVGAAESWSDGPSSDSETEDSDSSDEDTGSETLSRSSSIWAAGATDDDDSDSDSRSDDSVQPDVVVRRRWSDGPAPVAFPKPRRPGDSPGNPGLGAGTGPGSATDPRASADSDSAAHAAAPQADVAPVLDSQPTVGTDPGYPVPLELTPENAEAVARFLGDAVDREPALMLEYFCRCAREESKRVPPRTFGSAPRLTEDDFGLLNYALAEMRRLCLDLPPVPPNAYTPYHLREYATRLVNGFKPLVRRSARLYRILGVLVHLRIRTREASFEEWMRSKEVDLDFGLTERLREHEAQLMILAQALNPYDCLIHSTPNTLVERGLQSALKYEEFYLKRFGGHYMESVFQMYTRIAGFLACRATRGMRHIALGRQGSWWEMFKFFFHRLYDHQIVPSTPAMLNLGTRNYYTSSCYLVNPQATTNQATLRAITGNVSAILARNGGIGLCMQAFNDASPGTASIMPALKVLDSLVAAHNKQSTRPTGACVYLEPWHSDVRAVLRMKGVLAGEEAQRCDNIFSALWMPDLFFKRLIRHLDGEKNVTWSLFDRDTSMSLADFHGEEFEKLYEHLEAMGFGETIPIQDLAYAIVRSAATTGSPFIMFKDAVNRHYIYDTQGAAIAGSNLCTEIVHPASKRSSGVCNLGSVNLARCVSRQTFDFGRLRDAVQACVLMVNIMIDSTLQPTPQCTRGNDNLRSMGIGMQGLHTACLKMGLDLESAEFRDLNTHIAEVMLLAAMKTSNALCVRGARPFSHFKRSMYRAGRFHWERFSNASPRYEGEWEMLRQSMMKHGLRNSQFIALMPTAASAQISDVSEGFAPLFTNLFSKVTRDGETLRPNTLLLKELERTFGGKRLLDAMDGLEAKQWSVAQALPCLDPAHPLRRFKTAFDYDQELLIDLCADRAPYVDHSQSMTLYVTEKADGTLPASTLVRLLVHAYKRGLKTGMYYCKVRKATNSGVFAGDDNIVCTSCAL

Compound | IC50 [µM]
CC(C)C[C@H](NC(=O)[C@H](CC(=O)O)NC(=O)[C@H](CC(N)=O)NC(=O)[C@@H](NC(=O)[C@@H](NC(=O)[C@H](C)NC(=O)CNC(=O)[C@@H](C)NC(=O)[C@@H](N)Cc1ccc(O)cc1)C(C)C)C(C)C)C(=O)O [Y dA G A V V N D L] | 210

same assay, conditions: 30 minutes at 37° C., dithiothreitol and MgCl2; enzyme not preincubated with inhibitor; read-out: IC50 (μM concentration of peptide producing 50% inhibition of enzyme activity)

Compound | IC50 [µM]
CC(C)C[C@H](NC(=O)[C@@H](CC(=O)O)NC(=O)[C@H](CC(N)=O)NC(=O)[C@@H](NC(=O)[C@@H](NC(=O)[C@H](C)N)C(C)C)C(C)C)C(=O)O [A V V N dD L] (H-AVVN[dD]L-OH) | 520
CC(C)C[C@H](NC(=O)[C@H](CC(=O)O)NC(=O)[C@H](CC(N)=O)NC(=O)[C@@H](NC(=O)[C@@H](NC(=O)[C@@H](C)N)C(C)C)C(C)C)C(=O)O [dA V V N D L] (H-[dA]VVNDL-OH) | 90
CC(C)C[C@H](NC(=O)[C@H](CC(=O)O)NC(=O)[C@@H](CC(N)=O)NC(=O)[C@@H](NC(=O)[C@@H](NC(=O)[C@H](C)N)C(C)C)C(C)C)C(=O)O [A V V dN D L] (H-AVV[dN]DL-OH) | 460
CC(C)C[C@H](NC(=O)[C@H](CC(=O)O)NC(=O)[C@H](CC(N)=O)NC(=O)[C@@H](NC(=O)[C@@H](NC(=O)[C@H](C)NC(=O)CNC(=O)[C@H](C)NC(=O)[C@H](N)Cc1ccc(O)cc1)C(C)C)C(C)C)C(=O)O [dY A G A V V N D L] | 40
CC(C)C[C@H](NC(=O)[C@H](CC(=O)O)NC(=O)[C@H](CC(N)=O)NC(=O)[C@@H](NC(=O)[C@@H](NC(=O)[C@H](C)NC(=O)[C@@H](C)NC(=O)[C@H](C)NC(=O)[C@@H](N)Cc1ccc(O)cc1)C(C)C)C(C)C)C(=O)O [Y A dA A V V N D L] (H-YA[dA]AVVNDL-OH) | 88
CC(C)C[C@H](NC(=O)[C@H](CC(=O)O)NC(=O)[C@H](CC(N)=O)NC(=O)[C@H](NC(=O)[C@@H](NC(=O)[C@H](C)N)C(C)C)C(C)C)C(=O)O [A V dV N D L] (H-AV[dV]NDL-OH) | 600
CC(C)C[C@H](NC(=O)[C@H](CC(=O)O)NC(=O)[C@@H](CC(N)=O)NC(=O)[C@@H](NC(=O)[C@@H](NC(=O)[C@H](C)NC(=O)CNC(=O)[C@H](C)NC(=O)[C@@H](N)Cc1ccc(O)cc1)C(C)C)C(C)C)C(=O)O [Y A G A V V dN D L] | > 620
CC(C)C[C@H](NC(=O)[C@H](CC(=O)O)NC(=O)[C@H](CC(N)=O)NC(=O)[C@@H](NC(=O)[C@@H](NC(=O)[C@H](N)Cc1ccc(O)cc1)C(C)C)C(C)C)C(=O)O [dY V V N D L] (H-[dY]VVNDL-OH) | 30
CC(C)C[C@H](NC(=O)[C@H](CC(=O)O)NC(=O)[C@H](CC(N)=O)NC(=O)[C@@H](NC(=O)[C@@H](NC(=O)[C@@H](C)NC(=O)CNC(=O)[C@H](C)NC(=O)[C@@H](N)Cc1ccc(O)cc1)C(C)C)C(C)C)C(=O)O [Y A G dA V V N D L] | 72

target: ribonucleotide reductase enzyme of herpes simplex virus (Human herpesvirus 1, UniProt P08543); experiment: not given; settings: Nature 321:439-441 and 441-443 (1986); cited from earlier work

Compound | inhibition in vitro of the activity of the enzyme
Tyr Ala Gly Ala Val Val Asn Asp Leu | inhibited

target: T2, ribonucleotide reductase enzyme of herpes simplex virus (Human herpesvirus 1, UniProt P08543); experiment: not given; settings: Nature 321:439-441 and 441-443 (1986); cited from earlier work
T2 sequence (P08543 whole entry, looked up): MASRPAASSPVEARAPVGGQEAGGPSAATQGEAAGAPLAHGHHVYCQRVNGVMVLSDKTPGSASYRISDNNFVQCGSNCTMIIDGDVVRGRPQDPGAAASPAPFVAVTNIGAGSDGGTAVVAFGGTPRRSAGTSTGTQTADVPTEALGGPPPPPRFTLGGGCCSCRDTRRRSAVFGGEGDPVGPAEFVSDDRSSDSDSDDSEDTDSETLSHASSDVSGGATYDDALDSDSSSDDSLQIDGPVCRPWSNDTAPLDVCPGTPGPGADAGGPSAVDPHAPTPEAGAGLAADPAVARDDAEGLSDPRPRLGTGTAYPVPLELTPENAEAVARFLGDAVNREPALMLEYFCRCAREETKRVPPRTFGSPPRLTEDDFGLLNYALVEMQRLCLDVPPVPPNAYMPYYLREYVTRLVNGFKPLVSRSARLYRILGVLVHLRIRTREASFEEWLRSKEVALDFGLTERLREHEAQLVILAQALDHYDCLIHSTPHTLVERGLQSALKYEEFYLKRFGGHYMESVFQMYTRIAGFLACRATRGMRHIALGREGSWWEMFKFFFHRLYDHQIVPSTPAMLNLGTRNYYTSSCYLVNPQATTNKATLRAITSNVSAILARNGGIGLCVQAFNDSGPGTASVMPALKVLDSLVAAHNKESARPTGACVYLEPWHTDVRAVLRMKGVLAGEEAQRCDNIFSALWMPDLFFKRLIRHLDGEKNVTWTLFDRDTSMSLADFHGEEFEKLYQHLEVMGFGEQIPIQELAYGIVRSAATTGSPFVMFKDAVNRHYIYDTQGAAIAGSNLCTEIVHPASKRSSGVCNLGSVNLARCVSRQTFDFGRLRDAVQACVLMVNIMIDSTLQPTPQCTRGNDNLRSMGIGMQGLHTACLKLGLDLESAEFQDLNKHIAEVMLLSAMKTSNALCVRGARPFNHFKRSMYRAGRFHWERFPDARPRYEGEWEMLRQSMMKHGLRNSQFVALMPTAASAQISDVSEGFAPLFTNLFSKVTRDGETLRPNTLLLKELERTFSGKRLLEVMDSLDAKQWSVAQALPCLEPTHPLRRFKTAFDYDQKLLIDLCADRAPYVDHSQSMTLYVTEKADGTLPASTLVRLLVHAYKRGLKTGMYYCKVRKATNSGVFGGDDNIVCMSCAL

Compound | inhibition in vitro of the activity of the enzyme
YGAVVNDL [8-desalanine homolog of the nonapeptide, disclosed by Dutia et al] | inhibited
